Source: US20220387362A1, “COMPOSITIONS COMPRISING A DHODH INHIBITOR FOR THE TREATMENT OF ACUTE MYELOID LEUKEMIA” (RHIZEN PHARMACEUTICALS AG, priority 2019, published 2022)
Where two headings read alike, the source gives them in different places.

Experiments:
MV411 [1] = assay: Anti-proliferative effect in AML cell lines (MTT assay); format: cell-based; details: Homo sapiens, MV4-11, MV411, 72 h
Description: (§1) Compound A was tested across a panel of AML cell lines (U937, HL-60, THP-1, KG-1 and MV411). Cells were plated in 96-well plates and incubated with desired concentrations of Compound A for 72 hours (h). At the end of the incubation period, MTT ((3-(4,5-dimethylthiazol-2-yl)-2,5-diphenyltetrazolium bromide)) was added. The plates were placed on a shaker for 5 min to mix the formazan and the optical density at 560 nm was measured on a spectrophotometer. Data were plotted using Graphpad prism for calculation of the GI50 concentrations.

KG-1 = assay: as above; format: cell-based; details: Homo sapiens, KG-1, 72 h
Description: as §1

HL60 = assay: as above; format: cell-based; details: Homo sapiens, HL-60, HL60, 72 h
Description: as §1

THP-1 [2] = assay: as above; format: cell-based; details: Homo sapiens, THP-1, 72 h
Description: as §1

U937 [3] = assay: as above; format: cell-based; details: Homo sapiens, U-937, U937, 72 h
Description: as §1

MV411 xenograft = assay: MV411 mouse xenograft model; format: in vivo
Description: The effect of Compound A was determined in a MV411 mouse xenograft model. Briefly, 5×10^6 cells were injected into the right flank region by Subcutaneous administration under sterile condition. The oral administration of Compound (A) at 30 mg/kg/BID for 21 days. The tumors were measured using a calliper in two dimensions, length (a) and width (b). Tumor volumes were estimated from measurements of the two diameters of the individual tumors as follows: Tumor Volume (mm3)=(a×b2)/2. At the end of the study period, animals were sacrificed and the tumors harvested.

[4] = test system: CD11b mRNA expression in THP-1; assay: CD11b mRNA expression in THP-1 cell lines (Real-Time PCR); format: cell-based; details: THP-1, 3 μM, 72 hours
Description: THP-1 cells were plated in complete media at pre-determined density in 6-well plates and the cells were treated with Compound A for 72 hours. mRNA was isolated using TRI reagent according to the manufacturer's protocol (TRI Reagent from Sigma). cDNA was synthesized using cDNA Synthesis kit according to manufacturer's protocol (First Strand cDNA Synthesis kit) and Real-Time PCR was performed. Data was calculated using delta delta Ct method. Fold change in mRNA expression was plotted using GraphPad Prism (Version 5.02)

[5] = test system: CD11b expression in MV411; assay: CD11b cell surface expression (flow cytometry); format: cell-based; details: MV411, 3 μM, 72 hours
Description: (§2) Cells were plated in complete media at pre-determined density in 6-well plates and the cells were treated with Compound A 96 hours for THP-1 cell lines and 72 hours for MV411 cell lines) in the presence or absence of uridine. The cells were stained with CD11b Antibody PE according to manufacturer's protocol (CD11b Monoclonal Antibody (ICRF44), PE, eBioscience) and the cells were acquired and analysed by flow cytometry (Guava Easycyte).

[6] = test system: CD11b expression in THP-1; assay: CD11b cell surface expression (flow cytometry); format: cell-based; details: THP-1, 5 μM, 96 hours
Description: as §2

AML cell line THP-1 = assay: Anti-proliferative effect in combination with gilteritinib (MTT assay); format: cell-based
Description: (§3) Compound A (at 3 μM) and Gilteritinib (0.25 μM) was tested in AML cell line THP-1. Cells were plated in 96-well plates and incubated with desired concentrations of Compound A for 72 h. At the end of the incubation period, MTT ((3-(4,5-dimethylthiazol-2-yl)-2,5-diphenyltetrazolium bromide)) was added. The plates were placed on a shaker for 5 min to mix the formazan and the optical density at 560 nm was measured on a spectrophotometer. Data were plotted using Graphpad prism for calculation of the percentage inhibition to determine the effect of Compound A as a single agent or in combination with gilteritinib.

AML cell line U937 = assay: Anti-proliferative effect in combination with gilteritinib (MTT assay); format: cell-based
Description: as §3, with “gilteritinib (1.5” for “Gilteritinib (0.25”, “U937.” for “THP-1.”

MV411 [7] = assay: Anti-proliferative effect with uridine rescue (MTT assay); format: cell-based; details: Homo sapiens, MV4-11, 72 h
Description: as §1, with “in the absence” for “across a panel”, “Uridine” for “AML cell lines”, “THP-1” for “THP-1, KG-1”, “MV411 cell lines) or in the presence of Uridine (100 μM for U937, HL-60 and MV411 and 300 μM for THP-1).” for “MV411).”, “h.” for “hours (h).”

HL-60 = assay: as above; format: cell-based; details: Homo sapiens, 72 h
Description: as §1, with “in the absence” for “across a panel”, “Uridine” for “AML cell lines”, “THP-1” for “THP-1, KG-1”, “MV411 cell lines) or in the presence of Uridine (100 μM for U937, HL-60 and MV411 and 300 μM for THP-1).” for “MV411).”, “h.” for “hours (h).”

THP-1 [8] = assay: as above; format: cell-based; details: Homo sapiens, 72 h
Description: as §1, with “in the absence” for “across a panel”, “Uridine” for “AML cell lines”, “THP-1” for “THP-1, KG-1”, “MV411 cell lines) or in the presence of Uridine (100 μM for U937, HL-60 and MV411 and 300 μM for THP-1).” for “MV411).”, “h.” for “hours (h).”

U937 [9] = assay: as above; format: cell-based; details: Homo sapiens, U-937, 72 h
Description: as §1, with “in the absence” for “across a panel”, “Uridine” for “AML cell lines”, “THP-1” for “THP-1, KG-1”, “MV411 cell lines) or in the presence of Uridine (100 μM for U937, HL-60 and MV411 and 300 μM for THP-1).” for “MV411).”, “h.” for “hours (h).”

[10] = test system: AML cell lines (U937, HL-60, THP-1 and MV411); assay: Anti-proliferative effect with uridine rescue, AML cell lines together (MTT assay); format: cell-based
Description: as §1, with “in the absence” for “across a panel”, “Uridine” for “AML cell lines”, “THP-1” for “THP-1, KG-1”, “MV411 cell lines) or in the presence of Uridine (100 μM for U937, HL-60 and MV411 and 300 μM for THP-1).” for “MV411).”, “h.” for “hours (h).”

[11] = test system: AML cell lines (U937, HL-60, THP-1, KG-1 and MV411); assay: Anti-proliferative effect across panel of AML cell lines (MTT assay); format: cell-based; details: U937, HL-60, THP-1, KG-1, MV411; 72 h; read-out: GI50 range over all AML cell lines tested
Description: as §1

[12] = in combination with cyclosporine; cited from earlier work
[13] = patients; cited from earlier work
[14] = Homo sapiens, THP-1, 72 h, Compound A 3 μM, Gilteritinib 0.25 μM, read-out: % inhibition of cell growth
[15] = Homo sapiens, U-937, U937, 72 h, Compound A 3 μM, gilteritinib 1.5 μM, read-out: % inhibition of cell growth

`CCCCOc1cccc(-c2cc(F)c(NC(=O)c3ccccc3C(=O)O)c(Cl)c2)c1` [Compound A, 2-(3′-butoxy-3-chloro-5-fluorobiphenyl-4-ylcarbamoyl)benzoic acid] showed a GI50 (MV411 [1]) of 2.5 µM, a GI50 (KG-1) of 7.6 µM and a GI50 (HL60) of 3.5 µM. The GI50 (THP-1 [2]) was 2.5 µM, the GI50 (U937 [3]) was 2.4 µM and the tumor growth inhibition (MV411 xenograft; Compound A 30 mg/kg/BID oral 21 days, combination with cytarabine 20 mg/Kg) was 37%. For the same compound, the “adverse events or body weight changes” value (MV411 xenograft; throughout the study period, MV411 xenograft mice) was “No adverse events or body weight changes were observed”, the “induction of CD11b gene expression” value [4] was 80 fold and the “CD11b cell surface expression, % of cell population” value [5] was 35%. For the same compound, the “CD11b cell surface expression after addition of uridine” value ([6]; with uridine) was 15%, the “CD11b cell surface expression, % of cell population” value ([6]; without uridine) was 40% and the inhibition at 3 µM (AML cell line THP-1; [14]) was 35.8%. For the same compound, the “effect on activity of gilteritinib (cell growth inhibition)” value (AML cell line THP-1; THP-1, p<0.05) was “potentiated”, the melting point was 128 to 130 °C and the inhibition at 3 µM (AML cell line U937; [15]) was 41.4%. For the same compound, the “effect on activity of gilteritinib (cell growth inhibition)” value (AML cell line U937; U937, p<0.05) was “potentiated”, the GI50 (MV411 [7]; MV411, 100 μM uridine) was greater than 10 µM and the GI50 (MV411 [7]; MV411, absence of uridine) was 2.6 µM. It also gave a GI50 (HL-60; HL-60, 100 μM uridine) greater than 10 µM, a GI50 (HL-60; HL-60, absence of uridine) of 3.6 µM and a GI50 (THP-1 [8]; THP-1, 300 μM uridine) greater than 10 µM. The GI50 (THP-1 [8]; THP-1, absence of uridine) was 2 µM, the GI50 (U937 [9]; U937, 100 μM uridine) was greater than 10 µM and the GI50 (U937 [9]; U937, absence of uridine) was 3.2 µM. For the same compound, the GI50 ([10]; 100 μM or 300 μM uridine, read-out: GI50 over AML cell lines with addition of uridine) was greater than 10 µM, the GI50 ([10]; U937, HL-60, THP-1, MV411, no uridine, read-out: GI50 range over AML cell lines, without uridine) was 2 to 3.2 µM and the GI50 [11] was 2.4 to 7.6 µM.
With `CCc1nc(C(N)=O)c(Nc2ccc(N3CCC(N4CCN(C)CC4)CC3)c(OC)c2)nc1NC1CCOCC1` [Gilteritinib, reference compound] the inhibition at 0.25 µM (AML cell line THP-1; [14]) was 40.1% and the inhibition at 1.5 µM (AML cell line U937; [15]) was 41.7%.
For `Cc1c(-c2ccc(-c3ccccc3F)cc2)nc2ccc(F)cc2c1C(=O)O` [brequinar], the “toxic effects on oral administration” value [12] is given as “toxic effects, including leukocytopenia and thrombocytopenia”.
For `Cc1oncc1C(=O)Nc1ccc(C(F)(F)F)cc1` [leflunomide], the half-life time [13] is given as “approximately 2 weeks”.
